Assay results taken from patent US9446045B2, “Methods of using selective chemotherapeutic agents for targeting tumor cells” (Duquesne University of the Holy Ghost, priority 2006, dated 2016).

Tests used:
[1] = system: RFC expressing pc43-10 cells; assay: Inhibition of RFC expressing pc43-10 cells; assay type: cell-based; conditions: pc43-10 cells vs FR-alpha expressing cells
Procedure: (§1) AAG366, AAG344, the clinically used antifolates methotrexate, pemetrexed, ratitrexed, as well as the most important GARFTase inhibitor DDATHF (Lometrexol) were evaluated.

[2] = system: FR-alpha expressing RT16 cells; assay: Inhibition of FR-alpha expressing RT16 cells; assay type: cell-based; conditions: for selectivity for FR-alpha expressing RT16 cells over RFC expressing pc43-10 cells: RT16 vs pc43-10 cells
Procedure: as §1

| Compound | potency against RFC expressing pc43-10 cells compared to FR-alpha expressing RT16 or KB cells [1] | potency against FR-alpha expressing RT16 cells compared with AAG366 and AAG344 [2] | selectivity for FR-alpha expressing RT16 cells over RFC expressing pc43-10 cells [2] |
| --- | --- | --- | --- |
| CN(Cc1cnc2nc(N)nc(N)c2n1)c1ccc(C(=O)N[C@@H](CCC(=O)O)C(=O)O)cc1 [methotrexate] | greater potency | less potent | none showed selectivity |
| Nc1nc2[nH]cc(CCc3ccc(C(=O)N[C@@H](CCC(=O)O)C(=O)O)cc3)c2c(=O)[nH]1 [pemetrexed] | greater potency | less potent | none showed selectivity |
| Cc1nc(=O)c2cc(CN(C)c3ccc(C(=O)N[C@@H](CCC(=O)O)C(=O)O)s3)ccc2[nH]1 [ratitrexed] | greater potency | less potent | none showed selectivity |
| Nc1nc2c(c(=O)[nH]1)C[C@@H](CCc1ccc(C(=O)N[C@@H](CCC(=O)O)C(=O)O)cc1)CN2 [DDATHF] | equal potency | less potent | none showed selectivity |
